# Reference: patent US20240408169A1 (priority 2023, published 2024)
# *1 amine or outer side, *2 acyl side, *3 side chain or, on linkers, in order; H or OH if unused. Where a SMILES comes first, the peptide text is derived from it. Bridges are numbered along the chain shown (N, C = ends). [ ]: non-standard residue; d: D form. The star is where a group is joined. X101 = CN([C@@H](Cc1cc(Cl)ccc1-c1cnn(C2CS(=O)(=O)C2)c1)C(=O)[*:2])[*:1]; X23 = CCN([C@@H](Cc1cc(Cl)ccc1-c1ccc(N2CCN(C)CC2)cc1)C(=O)[*:2])[*:1]; X37 = CN1CCN(c2ccc(-c3ccc(F)cc3C[C@@H](C(=O)[*:2])N(C)[*:1])cn2)CC1; NMehhhLys(Me) = CN([C@@H](CCCCCCCN(C)[*:3])C(=O)[*:2])[*:1]; X22 = CN([C@@H](Cc1cc(Cl)ccc1-c1cnn(C)c1)C(=O)[*:2])[*:1]; X104 = CN([C@@H](Cc1cc(Cl)ccc1C1=CCOCC1)C(=O)[*:2])[*:1]; X109 = CN([C@@H](Cc1cc(Cl)ccc1-c1ccncc1)C(=O)[*:2])[*:1]; NMe(hhhLys) = CN([C@@H](CCCCCCCN[*:3])C(=O)[*:2])[*:1]; X33 = CN([C@@H](Cc1cc(Cl)cc2c1OCCO2)C(=O)[*:2])[*:1]; Cyclobutanecarbonyl(1-CF3) = O=C(C1(C(F)(F)F)CCC1)*; cBuCO(3,3-F2-1-CF3) = O=C(C1(C(F)(F)F)CC(F)(F)C1)*; Pro(trans-4-F) = O=C(O)[C@@H]1C[C@@H](F)CN1; Gly(cPr) = N[C@H](C(=O)O)C1CC1
# Tests used:
# NCI-H1048 cells = assay: MTT proliferation assay, NCI-H1048; assay type: cell-based; conditions: 5 days compound exposure, 1:3 serial dilution starting at 10 μM;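 also: Dose-response in 96-well plates over 8 or 10 concentration points, with exposure spanning 3-4 cell doublings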
# OVCAR3 cells = assay: MTT proliferation assay, OVCAR3; assay type: cell-based; conditions: 5 days compound exposure, 1:3 serial dilution starting at 10 μM;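 also: compound given as an 8- or 10-point series, one day after plating, with exposure covering roughly 3-4 cell doublings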
# CyclinE1/CDK2 = target: T1, CyclinE1/CDK2 (Homo sapiens, UniProt P24864); assay: Fluorescence Polarization (FP) competitive binding assay, Cyclin E1/Cdk2; conditions: 10 nM Cyclin E1/Cdk2, 2 nM FAM probe; average of 2-3 independent experiments; read-out: Cyclin E FP IC50;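 also: readings taken after two-hour equilibration at room temperature in HEPES buffer with NaCl, DTT, NP-40 and BSA, IC50 fitted from eight-concentration serial dilution series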
# T1 construct: purchased Eurofins, discovery 14-475
# CyclinA2/CDK2 = target: T2, CyclinA2/CDK2 (Homo sapiens, UniProt P20248); assay: Fluorescence Polarization (FP) competitive binding assay, Cyclin A2/Cdk2; conditions: 8 nM Cyclin A2/Cdk2, 2 nM FAM probe; average of 2-3 independent experiments; read-out: Cyclin A FP IC50;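 also: plates equilibrated two hours at room temperature before polarization reading, IC50 fitted from eight-concentration compound titration curves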
# T2 construct: purchased CRELUX Protein Services
# CyclinB1/CDK1 = target: T3, CyclinB1/CDK1 (Homo sapiens, UniProt P14635); assay: Fluorescence Polarization (FP) competitive binding assay, Cyclin B1/Cdk1; conditions: 10 nM Cyclin B1/Cdk1, 2 nM FAM probe; average of 2-3 independent experiments; read-out: Cyclin B FP IC50;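 also: fluorescence polarization read after equilibration at room temperature, with IC50 taken from serially diluted dose-response curves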
# T3 construct: purchased Eurofins, discovery 14-450
# WI-38 cells = assay: MTT proliferation assay, WI-38; assay type: cell-based; conditions: 3 days compound exposure, 1:3 serial dilution starting at 10 μM;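 also: Eight- or ten-point dilution series, with exposure length chosen to span about three to four cell doublings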
Compound,GI50 (NCI-H1048 cells),GI50 (OVCAR3 cells),IC50 (CyclinE1/CDK2),IC50 (CyclinA2/CDK2),IC50 (CyclinB1/CDK1),GI50 (WI-38 cells)
"CC(C)C[C@@H]1NC(=O)[C@@H](N(C)C(=O)[C@@H](NC(=O)[C@@H]2C[C@@H](F)CN2C(=O)C2(C(F)(F)F)CC(F)(F)C2)C2CC2)CCCCCCCN(C)C(=O)[C@H](Cc2cc(Cl)ccc2-c2cnn(C3CS(=O)(=O)C3)c2)N(C)C1=O [Example 255] ({cBuCO(3,3-F2-1-CF3)}-[Pro(trans-4-F)][Gly(cPr)][NMehhhLys(Me)]L[X101]; lactam 3-C)",0.04 µM,0.03 µM,0.21 µM,0.02 µM,0.02 µM,15.8 µM
"CC(C)C[C@@H]1NC(=O)[C@@H](N(C)C(=O)[C@@H](NC(=O)[C@@H]2C[C@@H](F)CN2C(=O)C2(C(F)(F)F)CC(F)(F)C2)C2CC2)CCCCCCCNC(=O)[C@H](Cc2cc(Cl)cc3c2OCCO3)N(C)C1=O [Example 330] ({cBuCO(3,3-F2-1-CF3)}-[Pro(trans-4-F)][Gly(cPr)][NMe(hhhLys)]L[X33]; lactam 3-C)",0.01 µM,0.01 µM,0.1 µM,0.03 µM,0.02 µM,18.5 µM
"CC(C)C[C@@H]1NC(=O)[C@@H](N(C)C(=O)[C@@H](NC(=O)[C@@H]2C[C@@H](F)CN2C(=O)C2(C(F)(F)F)CC(F)(F)C2)C2CC2)CCCCCCCN(C)C(=O)[C@H](Cc2cc(Cl)ccc2-c2ccncc2)N(C)C1=O [Example 192] ({cBuCO(3,3-F2-1-CF3)}-[Pro(trans-4-F)][Gly(cPr)][NMehhhLys(Me)]L[X109]; lactam 3-C)",0.02 µM,0.02 µM,1.14 µM,0.02 µM,0.02 µM,3.51 µM
"CC(C)C[C@@H]1NC(=O)[C@@H](N(C)C(=O)[C@@H](NC(=O)[C@@H]2C[C@@H](F)CN2C(=O)C2(C(F)(F)F)CC(F)(F)C2)C2CC2)CCCCCCCN(C)C(=O)[C@H](Cc2cc(Cl)ccc2C2=CCOCC2)N(C)C1=O [Example 51] ({cBuCO(3,3-F2-1-CF3)}-[Pro(trans-4-F)][Gly(cPr)][NMehhhLys(Me)]L[X104]; lactam 3-C)",0.01 µM,0.01 µM,0.89 µM,0.02 µM,0.02 µM,18.8 µM
"CCN1C(=O)[C@H](CC(C)C)NC(=O)[C@@H](N(C)C(=O)[C@@H](NC(=O)[C@@H]2C[C@@H](F)CN2C(=O)C2(C(F)(F)F)CC(F)(F)C2)C2CC2)CCCCCCCN(C)C(=O)[C@@H]1Cc1cc(Cl)ccc1-c1ccc(N2CCN(C)CC2)cc1 [Example 405] ({cBuCO(3,3-F2-1-CF3)}-[Pro(trans-4-F)][Gly(cPr)][NMehhhLys(Me)]L[X23]; lactam 3-C)",0.04 µM,0.05 µM,2.56 µM,0.05 µM,0.02 µM,2.16 µM
"CC(C)C[C@@H]1NC(=O)[C@@H](N(C)C(=O)[C@@H](NC(=O)[C@@H]2C[C@@H](F)CN2C(=O)C2(C(F)(F)F)CC(F)(F)C2)C2CC2)CCCCCCCN(C)C(=O)[C@H](Cc2cc(F)ccc2-c2ccc(N3CCN(C)CC3)nc2)N(C)C1=O [Example 391] ({cBuCO(3,3-F2-1-CF3)}-[Pro(trans-4-F)][Gly(cPr)][NMehhhLys(Me)]L[X37]; lactam 3-C)",0.01 µM,0.01 µM,0.61 µM,0.03 µM,0.02 µM,7.82 µM
CC(C)C[C@@H]1NC(=O)[C@@H](N(C)C(=O)[C@@H](NC(=O)[C@@H]2C[C@@H](F)CN2C(=O)C2(C(F)(F)F)CCC2)C2CC2)CCCCCCCNC(=O)[C@H](Cc2cc(Cl)ccc2-c2cnn(C)c2)N(C)C1=O [Example 70] ({Cyclobutanecarbonyl(1-CF3)}-[Pro(trans-4-F)][Gly(cPr)][NMe(hhhLys)]L[X22]; lactam 3-C),0.01 µM,0.01 µM,0.29 µM,0.02 µM,0.02 µM,10.1 µM
